Test results: patent US6589755B1, “Assay for quantifying arthritic conditions” (Novartis AG, priority 1996, dated 2003)

System: LMW-COMP fragment
Test: LMW-COMP fragments in synovial fluid of treated arthritis patients
Format: in vivo, human
Conditions: strong anti-arthritic compound
Experimental: Twenty microliters of human synovial fluids were mixed 1:1 with SDS-PAGE loading buffer (NOVEX, San Diego, Calif.) containing 10% mercaptoethanol. The samples were boiled for 4 min. and […] applied per lane on a 14% or a 4-12% gradient SDS-PAGE Tris-Gly gel (Novex, Calif.). A separate set of these samples was also prepared for analysis under non-reducing conditions. Molecular weight markers were used to localize the molecular weight of unknowns. After electrophoresis, the samples were electrophoretically transferred onto a nitro-cellulose paper. The paper was treated with 2% bovine serum albumin (BSA) in 10 mM sodium phosphate, 0.15 M NaCl at […] (PBS) for 18 hours at 4° C.
The nitrocelluose paper was rinsed with PBS (10 mM sodium phosphate, 0.15 M NaCl at pH 7.2). […] The bound antibody was then detected using ECL or ECF substrate (Amersham Co.). The fragments were quantified using a Molecular Dynamics densitometer (Sunnyvale, Calif.). […]
A 96-well microtiter plate was coated with 0.1 ml/well of 50 ng/ml of antigen (synthetic peptide H741 without the N-terminal cysteine) in PBS for 48 to 72 h at 4° C. […] After 1 h at RT, the plate was washed 3-times with the ELISA wash buffer and the bound antibody detected by adding 100 μl/well of p-nitrophenyl phosphate substrate solution (Sigma, St. Louis, Mo.) and measuring optical density (OD) at 405 nm. […]

Structure (SMILES)	LMW-COMP fragment produced under treatment
CN(Cc1cnc2nc(N)nc(N)c2n1)c1ccc(C(=O)N[C@@H](CCC(=O)O)C(=O)O)cc1 [methotrexate]	less
CN1C(C(=O)Nc2ccccn2)=C(O)c2ccccc2S1(=O)=O [piroxicam]	less
